# System: T1, MnP (manganese peroxidase)
# T1 construct: gene MNP1; commercial recombinant enzyme (Sigma Aldrich), expressed in corn
# Assay: UV/Vis quinone formation at […] nm, Michaelis-Menten fit
# Format: biochemical, Phanerochaete chrysosporium
# Conditions: with 1 mM Mn(II); 0.05% H2O2; 0.1 M sodium acetate pH 4.5; 25 °C; 50 µM MnP; 8 min; apparent, oxidation may be mediated by Mn(III)
row,SMILES,Km
1,O=C(O)c1cc(O)c(O)c(O)c1 [gallic acid],660 µM
2,Oc1cccc(O)c1O [pyrogallol],280 µM

# Reference: paper PMC12029925, “Kinetics of Manganese Peroxidase Using Simple Phenolic Compounds as Substrates” (Metabolites, 2025)
